According to PubChem BioAssay (NCI):
Where “and” joins values, the source holds several entries; their conditions need not be identical. Identical values can stand only once.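 Interpolation was linear, between the two tested concentrations surrounding the appropriate level; five concentrations were tested over 48 hours in 96-well plates. GI50: concentration for 50% inhibition of growth. The concentration for full growth arrest is given as TGI.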

Tests used:
Experiment in all cases: growth of human tumour cells (NCI), 48 h
A498 renal = test system: A498 renal
ACHN renal = test system: ACHN renal
COLO 205 colon = test system: COLO 205 colon
HT29 colon = test system: HT29 colon
MOLT-4 leukemia = test system: MOLT-4 leukemia
OVCAR-5 ovarian = test system: OVCAR-5 ovarian
RXF 393 renal = test system: RXF 393 renal
SK-MEL-5 melanoma = test system: SK-MEL-5 melanoma
SN12C renal = test system: SN12C renal
SW-620 colon = test system: SW-620 colon

Structure (SMILES)	TGI (A498 renal)	TGI (ACHN renal)	TGI (COLO 205 colon)	TGI (HT29 colon)	TGI (MOLT-4 leukemia)	TGI (OVCAR-5 ovarian)	TGI (RXF 393 renal)	TGI (SK-MEL-5 melanoma)	TGI (SN12C renal)	TGI (SW-620 colon)	GI50 (A498 renal)	GI50 (ACHN renal)	GI50 (COLO 205 colon)	GI50 (HT29 colon)	GI50 (MOLT-4 leukemia)	GI50 (OVCAR-5 ovarian)	GI50 (RXF 393 renal)	GI50 (SK-MEL-5 melanoma)	GI50 (SN12C renal)	GI50 (SW-620 colon)
OCC1OC2OC3C(CO)OC(OC4C(CO)OC(OC5C(CO)OC(OC6C(CO)OC(OC7C(CO)OC(OC1C(O)C2O)C(O)C7O)C(O)C6O)C(O)C5O)C(O)C4O)C(O)C3O (stereo not given) (tested in a mixture with another compound)	> 100 µM	> 100 µM	> 100 µM	> 100 µM	> 100 µM	> 100 µM	> 100 µM	97.8 µM	> 100 µM	> 100 µM	–	–	–	–	–	–	–	–	–	–
O=C(O)c1cccc2cccc(C(=O)O)c12.[Hg]	32.3 µM	31.8 µM	14.5 µM	27.2 µM	42.7 µM	33.5 µM	32.3 µM	27 µM	27.7 µM	32 µM	18.3 µM	17.7 µM	3.1 µM	13.8 µM	19.6 µM	19.4 µM	16.8 µM	14 µM	14.6 µM	12.7 µM
NC(=O)Nc1c([N+](=O)[O-])cc(C(F)(F)F)cc1[N+](=O)[O-]	> 100 µM	> 100 µM	98.1 µM	> 100 µM	> 100 µM	> 100 µM	> 100 µM	> 100 µM	> 100 µM	> 100 µM	–	–	–	–	–	–	–	–	–	–
C=CC[C@@H]1/C=C(\C)C[C@H](C)C[C@H](OC)[C@H]2O[C@@](O)(C(=O)C(=O)N3CCCC[C@H]3C(=O)O[C@H](/C(C)=C/C3CC[C@@H](O)[C@H](OC)C3)[C@H](C)[C@@H](O)CC1=O)[C@H](C)C[C@@H]2OC (stereo not given in full)	24.3 µM	29.5 µM	36.6 µM	33.5 µM	41.6 µM	37.2 µM	27.3 µM	26.6 µM	31.6 µM	32.2 µM	9.95 µM	15.4 µM	19.3 µM	17.6 µM	14.4 µM	17.2 µM	13.6 µM	13.7 µM	16.3 µM	16.5 µM
COc1cc(Nc2nc3cc(C(F)(F)F)ccc3nc2-c2ccccc2)cc(OC)c1OC	> 100 µM	> 100 µM	> 100 µM	> 100 µM	> 100 µM	> 100 µM	63.8 µM	> 100 µM	> 100 µM	> 100 µM	–	–	–	–	–	–	–	–	–	–
O=C1CCC(N2Cc3c(C#CCCCNC(=O)c4cc5c(o4)C(=O)c4ccccc4C5=O)cccc3C2=O)C(=O)N1 (stereo not given)	27.5 µM	26 µM	6.01 µM	39.9 µM	12.5 µM	29.7 µM	18.2 µM	3.25 µM	3.25 µM	11.4 µM	14.2 µM	12.6 µM	2.3 µM	5.92 µM	3.08 µM	15.6 µM	4.55 µM	1.75 µM	1.69 µM	3.05 µM
Cc1ccc(-c2nc(N)c(C#N)c3c2CCOc2c-3ccc3ccccc23)cc1	0.609 µM	> 36.1 µM	> 100 µM	54.1 µM	> 100 µM	> 100 µM	6.29 µM	1.14 µM	53.9 µM	> 93.4 µM	0.0794 µM	0.847 µM	0.418 µM	0.387 µM	0.42 µM	4.74 µM	0.266 µM	0.0819 µM	12.3 µM	1.76 µM
CC(C(=O)O)/C(=C\c1ccc2c(c1)OCO2)C(=O)O (stereo not given)	> 100 µM	> 100 µM	> 100 µM	> 82.2 µM	> 21.9 µM	> 61.5 µM	> 100 µM	> 100 µM	> 100 µM	> 100 µM	–	–	–	–	–	–	–	–	–	–
CSC1=Nc2c(c(C)c(C)n2COC(CO)CO)C2=NC(=O)CC(C)N12 (stereo not given)	> 100 µM	> 100 µM	> 100 µM	> 100 µM	> 100 µM	> 100 µM	> 100 µM	> 100 µM	> 100 µM	> 100 µM	> 100 µM	> 100 µM	> 100 µM	> 100 µM	> 100 µM	> 100 µM	> 100 µM	> 100 µM	> 100 µM	> 100 µM
COC(=O)C1=C(c2ccc3c(c2)OCO3)OC(c2ccc3c(c2)OCO3)C1 (stereo not given)	> 100 µM	> 100 µM	> 100 µM	> 100 µM	> 100 µM	> 100 µM	> 100 µM	> 100 µM	> 100 µM	> 100 µM	–	–	–	–	–	–	–	–	–	–
O=C1c2cc([N+](=O)[O-])cc3cc([N+](=O)[O-])cc(c23)C(=O)N1CCCNCCNCCCN1C(=O)c2cc([N+](=O)[O-])cc3cc([N+](=O)[O-])cc(c23)C1=O	13.4 µM	> 23.2 µM	0.849 µM	5.25 µM	1.41 µM	6.68 µM	0.375 µM	1.97 µM	2.2 µM	4.52 µM	–	–	–	–	–	–	–	–	–	–
NCCCNCCSSC/C=C\CSSCCNCCCN	> 100 µM	> 100 µM	> 100 µM	31.4 µM and 27.5 µM	62 µM and 57.3 µM	> 100 µM	> 100 µM	> 100 µM	> 100 µM	> 100 µM	–	–	–	–	–	–	83.3 µM and 30.6 µM	–	–	–
Brc1ccccc1C=NC12CC3CC(CC(C3)C1)C2	> 100 µM	> 100 µM	> 100 µM	> 100 µM	> 91.1 µM	> 100 µM	> 100 µM	> 100 µM	> 63.1 µM	> 100 µM	–	–	–	–	–	–	–	–	–	–
CC(=O)OC1Oc2cc(C)c(C)cc2-c2oc(=O)c(-c3ccc(F)cc3)cc21 (stereo not given)	67.4 µM	> 100 µM	26.1 µM	12.1 µM	12.1 µM	> 100 µM	8.71 µM	17.2 µM	> 100 µM	28.8 µM	5.06 µM	11.9 µM	7.3 µM	2.7 µM	3.1 µM	6.3 µM	2.95 µM	3.35 µM	9.78 µM	3.87 µM
S=C(c1ccc2c(c1)OCO2)N1CCN(c2cccc(Cl)c2)CC1	12.8 µM	> 100 µM	–	> 100 µM	> 55.8 µM	> 100 µM	40.8 µM	> 100 µM	> 100 µM	> 100 µM	0.424 µM	13.4 µM	0.706 µM	0.406 µM	2.28 µM	7.69 µM	10.9 µM	0.454 µM	7.51 µM	0.404 µM
N#Cc1c(N)nc(NCc2ccccc2)c(C#N)c1-c1ccccc1Cl	46.9 µM	62.7 µM	> 100 µM	> 100 µM	> 100 µM	> 100 µM	> 100 µM	> 100 µM	25.1 µM	> 100 µM	19.2 µM	5.73 µM	74 µM	73.4 µM	26.8 µM	26.8 µM	24.6 µM	51.3 µM	4.53 µM	18.9 µM
CCN(CC)CCCCNc1ncc2cc(-c3cc(OC)cc(OC)c3)c(NC(=O)NC(C)(C)C)nc2n1	0.097 µM	16.4 µM	22.1 µM	13.9 µM	19.4 µM	31.4 µM	11.4 µM	18 µM	15.6 µM	23 µM	0.0209 µM	3.92 µM	8.08 µM	3.31 µM	3.66 µM	15.5 µM	1.63 µM	6.19 µM	3.52 µM	8.15 µM
C/C(=C\CCc1ccsc1)CC/C=C(\C)CCCN1CCC(CO)CC1	3.5 µM	11.5 µM	3.95 µM	5.64 µM	5.8 µM	11.6 µM	3.19 µM	2.95 µM	14.2 µM	4.77 µM	1.24 µM	3.02 µM	1.92 µM	1.94 µM	2.3 µM	2.77 µM	1.31 µM	1.55 µM	3.24 µM	2.02 µM
O=C(NCCNc1nccc(-c2c(-c3ccc(F)cc3)nc3sccn23)n1)c1ccccc1	> 100 µM	49.2 µM	14.6 µM	> 100 µM	54.8 µM	99.3 µM	28.3 µM	13.3 µM	48.4 µM	85.6 µM	15.1 µM	2.98 µM	1.84 µM	4.31 µM	12.2 µM	18.1 µM	6.19 µM	1.66 µM	6.52 µM	7.44 µM
O=C(CN1C(=O)S/C(=C\C(Cl)=C\c2ccccc2)C1=O)NCCc1ccc(O)cc1	7.75 µM	8.06 µM	5.68 µM	12.3 µM	> 100 µM	5.66 µM	3.5 µM	3.4 µM	9.79 µM	4.22 µM	1.65 µM	2.55 µM	2.31 µM	3.02 µM	2.38 µM	2.31 µM	1.78 µM	1.8 µM	2.34 µM	1.82 µM
Cc1sc(NC2=NC(=O)/C(=C\c3ccccc3)S2)nc1-c1nc(NC2=NC(=O)/C(=C\c3ccccc3)S2)sc1C	30.7 µM	> 32.6 µM	> 50 µM	> 50 µM	> 50 µM	> 50 µM	> 40.2 µM	> 34.5 µM	29.8 µM	> 50 µM	12.1 µM	12.4 µM	26.4 µM	23.3 µM	24.2 µM	26.2 µM	> 24.2 µM	13.1 µM	11.4 µM	16.7 µM
COc1cccc(Cn2c(-c3nonc3NC(C)=O)nc3ccccc32)c1	6.53 µM	> 100 µM	> 100 µM	> 100 µM	> 100 µM	> 100 µM	5.74 µM	> 100 µM	> 100 µM	> 100 µM	0.426 µM	8.41 µM	3.45 µM	3.28 µM	5.63 µM	4.04 µM	1.92 µM	3.76 µM	5.48 µM	3.08 µM
CNC(=O)NC(CCCCNC(=O)OCc1ccccc1)C(=O)OCc1ccccc1 (stereo not given)	71.4 µM	> 100 µM	34.2 µM	> 100 µM	58.7 µM	98.2 µM	53.6 µM	31.5 µM	> 84.6 µM	> 100 µM	–	–	–	–	–	–	–	–	–	–
COC(=O)C1=C(CS(=O)c2ccc([N+](=O)[O-])cc2[N+](=O)[O-])ON(C)C1c1ccccc1 (stereo not given)	> 100 µM	> 100 µM	> 65 µM	55.2 µM	48.5 µM	> 100 µM	> 80.7 µM	> 100 µM	> 63.3 µM	48.4 µM	–	–	–	–	–	–	–	–	–	–
